One series has as its system Rattus norvegicus. The series can be described thus: Antiarrhythmic activity in Ivanovas rat assessed as increase LD100 at 5 mg/kg, iv administered 5 mins before aconitine infusion. Format: functional, Heart.
Series [1] has as its system Plasma. The series can be described thus: Anticoagulant activity in human plasma assessed as increase in activated partial thromboplastin time. Type of series: functional, cell-free.
The subject of series [2] is Plasma. Description: Anticoagulant activity in rabbit plasma assessed as increase in activated partial thromboplastin time. Format: functional, cell-free. Conditions: Oryctolagus cuniculus.
For series [3], the species on record is Homo sapiens. The series can be described thus: Stimulation of heparin cofactor-2-induced inhibition of human alpha-thrombin.
The species entered for series [4] is Oryctolagus cuniculus. The series can be described thus: Stimulation of heparin cofactor-2-induced inhibition of alpha-thrombin in rabbit plasma assessed as [125I]-thrombin-heparin cofactor-2 complex formation by SDS-PAGE and autoradiography. Type of series: cell-free.
The species entered for series [5] is Oryctolagus cuniculus. Description: Stimulation of antithrombin-3-induced inhibition of alpha-thrombin in rabbit plasma assessed as [125I]-thrombin-antithrombin-3 complex formation by SDS-PAGE and autoradiography. Type of series: cell-free.
The species entered for series [6] is Homo sapiens. Description: Stimulation of antithrombin-3-induced inhibition of human alpha-thrombin at 0.2 to 2000 ug/mL.
The subject of series [7] is Oryctolagus cuniculus. The series can be described thus: Anticoagulant activity in New Zealand rabbit assessed as increase in activated partial thromboplastin time at 1 mg/kg, iv relative to untreated control. Type of series: functional.
The test system of series [8] is Oryctolagus cuniculus. The series can be described thus: Anticoagulant activity in New Zealand rabbit assessed as increase in activated partial thromboplastin time at 1 mg/kg, iv after 120 mins. Type of series: functional, organism-based. More on the design: dose 1 mg/kg.
Series [9] deals with Oryctolagus cuniculus. The series can be described thus: Effect on blood pressure in New Zealand rabbit assessed arterial blood pressure at 1 mg/kg, iv after 2 hrs. Type of series: functional.
Series [10] relates to Oryctolagus cuniculus. The series can be described thus: Anticoagulant activity in New Zealand rabbit assessed as increase in activated partial thromboplastin time at 1 mg/kg, po after 4 hrs relative to untreated control. Format: functional.
The test system of series [11] is Oryctolagus cuniculus. Description: Anticoagulant activity in New Zealand rabbit assessed as increase in activated partial thromboplastin time at 1 mg/kg, po after 8 hrs. Type of series: functional, organism-based. Set-up: dose 1 mg/kg.
Series [12] relates to Oryctolagus cuniculus. The series can be described thus: Antithrombotic effect in New Zealand rabbit assessed as incidence of complete arterial occlusion at 3 mg/kg, po relative to control. Format: functional.
In series [13] the test system is Oryctolagus cuniculus. Description: Antithrombotic effect in New Zealand rabbit assessed as time duration to occlusion at 3 mg/kg, po relative to control. Type of series: functional.
A short description of series [14]: Toxicity in rat. Conditions: in vivo. Format: organism-based.
Series [15] concerns Oryctolagus cuniculus. Description: Increase in bleeding time in New Zealand rabbit at 1 mg/kg, po relative to control. Format: organism-based. Set-up: dose 1 mg/kg, route oral. Conditions: in vivo.

Activity calls are given as the source filed them. The rule behind the calls is not given here.

Take `O=C(CC(=O)Nn1c(=O)c2cc3c(=O)n(NC(=O)CC(=O)Nc4nccs4)c(=O)c3cc2c1=O)Nc1nccs1`: the Activity in the series with Rattus norvegicus is 86%; in the series with Plasma [1] it was “Dose-dependent effect”; in the series on Plasma [2], “Dose-dependent effect”; with Oryctolagus cuniculus [9], 68.12 mmHg; with Oryctolagus cuniculus [12], 42.85%. For the same compound, the inhibition entry in the series listed under Homo sapiens [3] is “Active”. Further, the result in the series filed under Oryctolagus cuniculus [4], in the series with Oryctolagus cuniculus [8] and in the series with Oryctolagus cuniculus [11] was Active. Moreover, the outcome in the series filed under Oryctolagus cuniculus [5] and in the series listed under Homo sapiens [6] was inactive. Further, the “fold change (FC)” value with Oryctolagus cuniculus [7] was 4; with Oryctolagus cuniculus [10], 2; in the series on Oryctolagus cuniculus [13] it was 10; in the series on Oryctolagus cuniculus [15] it was 3.28. In addition, the 50% lethal dose (LD50) (commonly the dose at which mortality reaches 50%) in series [14] is 336 mg/kg.

In the case of `CC(=O)c1nn(-c2ccc(S(N)(=O)=O)cc2)/c(=N/NC(=O)CC(=O)Nc2nccs2)s1`, the Activity in the series with Rattus norvegicus is 85%. Moreover, in the series filed under Oryctolagus cuniculus [4], the result was Active. For the same compound, the result in the series listed under Oryctolagus cuniculus [5] and in the series filed under Homo sapiens [6] was inactive. The compound further showed an LD50 in series [14] of 546 mg/kg.

For the compound `COC(=O)/C(C(=O)Nc1nccs1)=C1/SC(C(C)=O)=C(C)N1c1ccccc1`, in the series on Rattus norvegicus, the Activity is on record as 88.8%. Besides, in the series filed under Oryctolagus cuniculus [4], the outcome was Active. Besides, the result in the series listed under Oryctolagus cuniculus [5] and in the series listed under Homo sapiens [6] was inactive. This compound also came in with an LD50 in [14] of 674 mg/kg.

On to `O=C(CC(=O)NN1C(=O)c2ccc3c4c(ccc(c24)C1=O)C(=O)N(NC(=O)CC(=O)Nc1nccs1)C3=O)Nc1nccs1`, for which the Activity in the series on Rattus norvegicus was 85%; in the series with Plasma [1], “Dose-dependent effect”; in the series with Plasma [2] it was “Dose-dependent effect”; with Oryctolagus cuniculus [9], 67.4 mmHg; in the series with Oryctolagus cuniculus [12], 24.57%. For the same compound, in the series listed under Homo sapiens [3], the inhibition entry is “Active”. Besides, the outcome in the series listed under Oryctolagus cuniculus [4], in the series on Oryctolagus cuniculus [8] and in the series on Oryctolagus cuniculus [11] was Active. Also, the outcome in the series listed under Oryctolagus cuniculus [5] and in the series listed under Homo sapiens [6] was inactive. Further, the “fold change (FC)” value in the series with Oryctolagus cuniculus [7] came out at 7; in the series with Oryctolagus cuniculus [10], 3; in the series on Oryctolagus cuniculus [13], 12; in the series on Oryctolagus cuniculus [15], 4.33. The compound also registered a 50% lethal dose (LD50) in series [14] of 445 mg/kg.

Consider `CCOC(=O)C1=NN(c2ccc(Cl)cc2)/C(=C(/C(=O)Nc2nccs2)C(=O)OC)S1`, for which, in the series on Rattus norvegicus, the Activity was 84%. The result in the series listed under Oryctolagus cuniculus [4] was Active. Moreover, the result in the series filed under Oryctolagus cuniculus [5] and in the series filed under Homo sapiens [6] was inactive. The same compound gave an LD50 in series [14] of 435 mg/kg.

For the compound `COC(=O)/C(C(=O)Nc1nccs1)=C1/SC(C(C)=O)=NN1c1ccc(S(N)(=O)=O)cc1`, the Activity with Rattus norvegicus was 90.9%. The result in the series filed under Oryctolagus cuniculus [4] was Active. Moreover, the outcome in the series listed under Oryctolagus cuniculus [5] and in the series filed under Homo sapiens [6] was inactive. Besides, the LD50 in series [14] turned out to be 456 mg/kg.

In the case of `COC(=O)/C(C(=O)Nc1nccs1)=C1/SC=C(c2ccccc2)N1c1ccccc1`, the Activity with Rattus norvegicus is reported as 88%. Moreover, the outcome in the series filed under Oryctolagus cuniculus [4] was Active. The outcome in the series listed under Oryctolagus cuniculus [5] and in the series listed under Homo sapiens [6] was inactive. In addition, the LD50 in series [14] was found to be 724 mg/kg.

Regarding `COC(=O)/C(C(=O)Nc1nccs1)=C1/SC(C(C)=O)=NN1c1ccc(S(=O)(=O)N2C(=O)c3c(Cl)c(Cl)c(Cl)c(Cl)c3C2=O)cc1`, the Activity in the series with Rattus norvegicus came out at 88%. For the same compound, the result in the series listed under Oryctolagus cuniculus [4] was Active. Also, the result in the series listed under Oryctolagus cuniculus [5] and in the series filed under Homo sapiens [6] was inactive. For the same compound, the LD50 in series [14] was found to be 564 mg/kg.

As to `COC(=O)/C(C(=O)Nc1nccs1)=C1/SCC(=O)N1c1ccccc1`, the Activity with Rattus norvegicus is listed as 83%. For the same compound, the outcome in the series listed under Oryctolagus cuniculus [4] was Active. Further, the outcome in the series listed under Oryctolagus cuniculus [5] and in the series filed under Homo sapiens [6] was inactive. Moreover, the LD50 in series [14] was 444 mg/kg.

As for `NNC(=O)CC(=O)Nc1nccs1`, in the series with Rattus norvegicus, the Activity amounted to 87.5%. Besides, the outcome in the series listed under Oryctolagus cuniculus [4] was Active. In addition, the result in the series listed under Oryctolagus cuniculus [5] and in the series filed under Homo sapiens [6] was inactive. The LD50 in [14] is 736 mg/kg.

In the case of `COC(=O)/C(C(=O)Nc1nccs1)=C1/SC=C(C)N1c1ccccc1`, the Activity in the series with Rattus norvegicus is given as 90.3%. In the series filed under Oryctolagus cuniculus [4], the result was Active. Besides, the result in the series listed under Oryctolagus cuniculus [5] and in the series listed under Homo sapiens [6] was inactive. Besides, the 50% lethal dose (LD50) in [14] is 434 mg/kg.

Regarding `O=C(CC(=O)NN1C(=O)c2c(Cl)c(Cl)c(Cl)c(Cl)c2C1=O)Nc1nccs1`, the Activity in the series with Rattus norvegicus was found to be 87.1%. Besides, the outcome in the series filed under Oryctolagus cuniculus [4] was Active. The outcome in the series listed under Oryctolagus cuniculus [5] and in the series filed under Homo sapiens [6] was inactive. Also, in series [14], the 50% lethal dose (LD50) was found to be 443 mg/kg.

In the case of `O=C(CC(=O)Nn1c(-c2ccccc2)csc1=S)Nc1nccs1`, in the series on Rattus norvegicus, the Activity is reported as 90.6%. In addition, the outcome in the series filed under Oryctolagus cuniculus [4] was Active. Moreover, the outcome in the series listed under Oryctolagus cuniculus [5] and in the series listed under Homo sapiens [6] was inactive. In series [14], this compound gave a median lethal dose (LD50) of 292 mg/kg.

In the case of `CCOC(=O)c1nn(-c2ccc(Br)cc2)/c(=N/NC(=O)CC(=O)Nc2nccs2)s1`, the Activity in the series with Rattus norvegicus was 80.1%. Moreover, the result in the series listed under Oryctolagus cuniculus [4] was Active. For the same compound, the result in the series listed under Oryctolagus cuniculus [5] and in the series listed under Homo sapiens [6] was inactive. Further, the 50% lethal dose (LD50) in series [14] was found to be 342 mg/kg.

In the case of `COC(=O)/C(C(=O)Nc1nccs1)=C(/S)Nc1ccccc1`, in the series with Rattus norvegicus, the Activity is 80.2%. The result in the series listed under Oryctolagus cuniculus [4] was Active. Moreover, the outcome in the series filed under Oryctolagus cuniculus [5] and in the series listed under Homo sapiens [6] was inactive. For the same compound, the LD50 in series [14] was 543 mg/kg.

Regarding `O=C(CC(=O)Nc1nccs1)NNC(=S)[S-].[K+]` [HYDRAZINECARBODITHIONIC ACID POTASSIUM SALT], in the series on Rattus norvegicus, the Activity amounted to 90.15%. Further, the outcome in the series listed under Oryctolagus cuniculus [4] was Active. The outcome in the series filed under Oryctolagus cuniculus [5] and in the series listed under Homo sapiens [6] was inactive. Besides, the median lethal dose (LD50) in [14] came out at 723 mg/kg.
